Results reported in patent US12589090B2, “Compounds and methods for the treatment of degenerative disorders” (Aquilus Pharmaceuticals, Inc., priority 2019, dated 2026).

Legend:
Dissociation constant = type: physicochemical
[1] = Solubility testing (Example 27); type: physicochemical; settings: for solubility in water: as the free acid
[2] = tested on: STZ-induced diabetic rats; test: STZ-induced diabetic rat model, tactile allodynia (Example 18); type: in vivo, Wistar rats
Experimental: (§1) Male Wistar rats (300-350 g) at the beginning of the experiment were used. A single dose (65 mg/kg, i.p.) of Streptozotocin (STZ) with 230 mg/kg (i.p) of nicotinamide were used for induction of diabetes in rats. The STZ was freshly dissolved in citrate buffer. Age matched control rats received the equal volume of the citrate buffer only. Forty days after injection of either STZ or citrate buffer, the rats were tested for diabetes mellitus (DM) using a drop of blood from the tail vein. The estimation of blood glucose level was made using OneTouch Select® Glucometer (LifeScan, Inc., USA). Rats with plasma glucose level>8 mmol/1 (145 mg/dl) were considered as diabetic. Following the diagnosis of DM, age matched healthy control and STZ-induced diabetic rats were divided randomly into four groups each containing six rats. Glucose level was estimated on weekly basis during the experiment.
(§2) Experimental design and drug treatment: Six weeks after the diabetic induction age matched healthy control and STZ-induced diabetic rats were divided randomly into four groups each containing six rats: naïve rats, vehicle (0.5% methylcellulose) treated DM group, 70 mg/kg (in 0.5% methylcellulose) Compound 5-treated DM group, 140 mg/kg (in 0.5% methylcellulose) Compound 5-treated DM group.
Behavioral testing: Tactile allodynia. […] The paw withdrawal thresholds were determined. […] The psychophysical 50% threshold was then calculated.
Data analysis: The results are presented as mean±SEM. In chronic pain experiment, four rats were excluded from the statistical analysis because the paw withdrawal threshold was >8 g (criterion taken from the study. Paw withdrawal threshold data were subjected to analysis of variance (ANOVA, General Linear Model procedure) with Dunnett's post hoc test was applied for between-group pair wise comparisons. Effects of Compound 5 on immunohistochemistry parameters were analyzed by one-way ANOVA (factors: Compound 5 treatment) followed by the Dunnett's test. Data were analyzed using SAS-STAT (SAS v.9.4, SAS Institute Inc., Cary, NC, USA). Data were considered significant at P<0.05.

caspase-3 = test: Caspase-3 immunohistochemistry (optical density) in spinal cord and sciatic nerve of STZ diabetic rats (Example 18); type: in vivo, Wistar rats
Experimental: Sections from the biopsy specimens (brain and spinal tissue) were formalin-fixed and paraffin-embedded. For IHC examination, slides from the spinal cord and sciatic nervous were evaluated for caspase-3 (cas-3). Serial 3-5-μm thick sections were cut from paraffin embedded tissue blocks. For subsequent IHC staining glass slices were exposed to hot unmasking fluidized citrate buffer pH 6.0 for 15-18 min. After cooling, the glass with the slice was transferred into phosphate-buffered saline (PBS) pH 7.4. The sections were deparaffinized and then rehydrated in alcohol to tris-buffered saline. Endogenous peroxidase activity was blocked using 3% hydrogen peroxide followed by a protein block with 5% goat serum.
Affinity purified monoclonal IgG1, Caspase-3 p11 antibodies (sc-271759; Santa Cruz BioTechnology Inc., Dallas, TX, USA) were used as the primary antibody and applied at a 1:50 dilution 100 μl/glass for 30 min at room temperature. […]
Immunohistochemistry: Sections from the biopsy specimens were formalin-fixed and paraffin-embedded. For immunohistochemistry (IHC) examination, slides from the spinal cord and sciatic nervous were evaluated for caspase-3. […] (4 per group) and three sections from each animal were used for quantitative immunohistochemistry (12 measuring per each group). […]

[3] = tested on: STZ-induced diabetic rats; test: STZ-induced diabetic rat model, blood glucose concentration and HbA1c (Example 18); type: in vivo, Wistar rats
Experimental: as §1, §2

[4] = In-vivo oral rat pharmacokinetics (Example 15); settings: male Sprague-Dawley rats, dose level 10 mg/kg, 0.5% MC, plasma, mean
Experimental: Understanding the pharmacokinetics in species typically employed in preclinical animal testing is an essential component of drug discovery. […] Procedure: Six (6) male Sprague-Dawley rats were used. Fasting was conducted at least 16 hours prior to dose administration. Food was returned at approximately 4 hours post dose. The animals were placed into 2 groups of 3 animals per group. The oral (PO) formulation for Groups 1 & 2 were prepared on the day of dosing at a target concentration of 0.5 mg/mL in 0.5% Methylcellulose (400 cps) to produce a white, homogeneous suspension. Dosing was performed as outlined in Table 1:
Whole blood samples (0.250 mL; K2EDTA anticoagulant) were collected from each animal through a jugular vein catheter. Whole blood samples were collected from all animals pre-dose, and at 0.25, 0.5, 1, 2, 4, 8, 16, and 24 hours after dose administration. All blood samples were immediately placed on ice until processing. Whole blood samples were centrifuged at 2200×g for 10 minutes in a refrigerated centrifuge (5±3° C.) to isolate plasma. The plasma samples were transferred to individual polypropylene vials and immediately placed on dry ice before storage at nominally −20±5° C. The plasma samples sometime later were then thawed and extracted and analyzed by high pressure liquid chromatography (HPLC) coupled to Mass Spectrometry (MS) (Table 2). Pharmacokinetic parameters (Table 3) were estimated using WinNonlin® pharmacokinetic software (Version No. 5.2.1) using a non-compartmental approach consistent with the PO route of administration.

dissociation constant (Dissociation constant) | solubility in DMSO, acetone and methanol [1] | solubility in water [1] | AUC(0-inf) [4] | AUC(0-t) [4] | Cmax [4] | half-life [4] | SMILES | tactile allodynia (paw withdrawal threshold), post hoc analysis ([2]; 70 mg/kg, 14 days treatment, p<0.05 vs. vehicle) | tactile allodynia (paw withdrawal threshold) ([2]; 140 mg/kg, 14 days treatment) | threshold of the nociceptive response (tactile allodynia) ([2]; after 14 days of treatment) | expression of caspase-3 in sciatic nerve (caspase-3; both doses (70 and 140 mg/kg), vs. vehicle-treated DM group) | caspase-3 in spinal cord (caspase-3; vs. vehicle group) | glycosylated hemoglobin (HbA1c) level ([3]; STZ diabetic rats treated during 2 weeks, vs. untreated DM rats) | blood glucose concentration ([3]; STZ diabetic rats, 70 or 140 mg/kg)
around 3.4 | soluble | poorly soluble | – | – | – | – | [2H]c1[nH]c2c([2H])c([2H])c([2H])c([2H])c2c1C[C@@H](NS(=O)(=O)c1ccc(C#Cc2ccc(C)cc2)s1)C(=O)O [Compound 82] | – | – | – | – | – | – | –
around 3.4 | soluble | poorly soluble | 5150 ng·h/mL | 5120 ng·h/mL | 1580 ng/mL | 1.28 h | Cc1ccc(C#Cc2ccc(S(=O)(=O)N[C@H](Cc3c[nH]c4ccccc34)C(=O)O)s2)cc1 [Compound 5, (R)-3-(1H-Indol-3-yl)-2-(5-p-tolylethynyl-thiophene-2-sulfonylamino)-propionic acid] | confirmed the effect | tendency to the analgesic effect | significantly decreased | significant reduction | statistically significant change | not significantly changed | no significant effects
